# Measured values as given in ChEMBL document CHEMBL3621086, “Synthesis of -brominated phosphonates and their application as phosphate bioisosteres” (Medchemcomm, 2014).
# Legend:
# [1] = molecular target: Lysophosphatidic acid receptor 1 (Homo sapiens, UniProt Q92633); test: Antagonist activity at human LPA1 receptor expressed in […] cells assessed as inhibition of LPA-induced Ca2+ mobilization by FURA-2AM dye based fluorescence assay; assay type: functional, cell-based
# [2] = molecular target: Lysophosphatidic acid receptor 4 (Homo sapiens, UniProt Q99677); test: Antagonist activity at human LPA4 receptor expressed in CHO cells assessed as inhibition of LPA-induced Ca2+ mobilization by FURA-2AM dye based fluorescence assay; assay type: functional, cell-based
# [3] = molecular target: T1, Lysophosphatidic acid receptor 3 (Homo sapiens, UniProt Q9UBY5); test: Antagonist activity at human LPA3 receptor expressed in […] cells assessed as inhibition of LPA-induced Ca2+ mobilization by FURA-2AM dye based fluorescence assay; assay type: functional, cell-based
# T1 sequence (Q9UBY5 whole entry): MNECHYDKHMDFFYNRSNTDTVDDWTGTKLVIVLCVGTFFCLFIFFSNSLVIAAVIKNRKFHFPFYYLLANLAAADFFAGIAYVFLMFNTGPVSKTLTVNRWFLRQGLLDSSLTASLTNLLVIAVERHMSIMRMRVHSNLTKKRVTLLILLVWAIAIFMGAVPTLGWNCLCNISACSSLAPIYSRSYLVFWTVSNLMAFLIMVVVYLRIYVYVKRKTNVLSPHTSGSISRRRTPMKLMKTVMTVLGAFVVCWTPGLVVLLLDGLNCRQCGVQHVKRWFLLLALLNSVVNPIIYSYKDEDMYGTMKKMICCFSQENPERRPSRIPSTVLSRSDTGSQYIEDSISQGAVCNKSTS
# [4] = molecular target: Lysophosphatidic acid receptor 2 (Homo sapiens, UniProt Q9HBW0); test: Antagonist activity at human LPA2 receptor expressed in […] cells assessed as inhibition of LPA-induced Ca2+ mobilization by FURA-2AM dye based fluorescence assay; assay type: functional, cell-based
# Autotaxin [5] = molecular target: T2, Autotaxin (Homo sapiens, UniProt Q13822); test: Inhibition of recombinant ATX (unknown origin) assessed as inhibition of hydrolysis of fluoregenic lysoPC analogue FS-3
# Autotaxin [6] = molecular target: T2, Autotaxin; test: Inhibition of recombinant ATX (unknown origin) assessed as inhibition of hydrolysis of fluoregenic lysoPC analogue FS-3 at 10 uM
# MDA-MB-231 = test: Inhibition of cell migration in human MDA-MB-231 cells by scratch wound assay; assay type: functional
# [7] = Binding affinity to Yersinia YopH
# [8] = molecular target: Transient receptor potential cation channel subfamily V member 1 (Homo sapiens, UniProt Q8NER1); test: Activation of TRPV-1 channel (unknown origin)
# [9] = molecular target: T3, Purine nucleoside phosphorylase (Homo sapiens, UniProt P00491); test: Inhibition of human erythrocyte PNP
# T3 sequence (P00491 whole entry): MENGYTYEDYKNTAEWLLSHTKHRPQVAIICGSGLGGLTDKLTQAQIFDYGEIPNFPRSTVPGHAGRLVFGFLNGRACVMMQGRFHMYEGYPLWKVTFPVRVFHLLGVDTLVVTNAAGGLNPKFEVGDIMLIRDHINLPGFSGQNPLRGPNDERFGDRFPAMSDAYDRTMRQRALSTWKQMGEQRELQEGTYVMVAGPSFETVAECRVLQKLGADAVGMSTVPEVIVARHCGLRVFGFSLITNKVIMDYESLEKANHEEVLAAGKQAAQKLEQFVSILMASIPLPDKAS
# Sequence of Lysophosphatidic acid receptor 4 (Q99677 whole entry): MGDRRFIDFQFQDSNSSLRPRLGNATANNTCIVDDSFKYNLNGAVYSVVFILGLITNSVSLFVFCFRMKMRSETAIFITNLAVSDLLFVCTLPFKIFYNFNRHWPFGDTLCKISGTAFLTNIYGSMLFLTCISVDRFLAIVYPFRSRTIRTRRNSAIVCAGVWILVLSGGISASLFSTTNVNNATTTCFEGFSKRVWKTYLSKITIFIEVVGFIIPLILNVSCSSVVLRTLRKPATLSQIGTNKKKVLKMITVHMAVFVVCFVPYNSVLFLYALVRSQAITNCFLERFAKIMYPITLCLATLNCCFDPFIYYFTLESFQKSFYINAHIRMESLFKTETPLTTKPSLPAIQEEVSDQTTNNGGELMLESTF
# Sequence of Lysophosphatidic acid receptor 1 (Q92633 whole entry): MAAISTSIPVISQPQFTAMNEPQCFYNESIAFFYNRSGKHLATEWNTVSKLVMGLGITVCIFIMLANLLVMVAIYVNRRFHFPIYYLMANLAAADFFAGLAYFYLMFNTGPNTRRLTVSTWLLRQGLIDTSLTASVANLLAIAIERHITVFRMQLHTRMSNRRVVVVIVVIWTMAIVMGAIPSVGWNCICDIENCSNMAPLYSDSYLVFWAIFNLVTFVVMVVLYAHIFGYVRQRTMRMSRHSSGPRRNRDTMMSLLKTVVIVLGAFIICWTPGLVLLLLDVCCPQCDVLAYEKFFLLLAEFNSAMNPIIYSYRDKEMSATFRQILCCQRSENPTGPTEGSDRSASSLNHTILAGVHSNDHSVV
# Sequence of Transient receptor potential cation channel subfamily V member 1 (Q8NER1 whole entry): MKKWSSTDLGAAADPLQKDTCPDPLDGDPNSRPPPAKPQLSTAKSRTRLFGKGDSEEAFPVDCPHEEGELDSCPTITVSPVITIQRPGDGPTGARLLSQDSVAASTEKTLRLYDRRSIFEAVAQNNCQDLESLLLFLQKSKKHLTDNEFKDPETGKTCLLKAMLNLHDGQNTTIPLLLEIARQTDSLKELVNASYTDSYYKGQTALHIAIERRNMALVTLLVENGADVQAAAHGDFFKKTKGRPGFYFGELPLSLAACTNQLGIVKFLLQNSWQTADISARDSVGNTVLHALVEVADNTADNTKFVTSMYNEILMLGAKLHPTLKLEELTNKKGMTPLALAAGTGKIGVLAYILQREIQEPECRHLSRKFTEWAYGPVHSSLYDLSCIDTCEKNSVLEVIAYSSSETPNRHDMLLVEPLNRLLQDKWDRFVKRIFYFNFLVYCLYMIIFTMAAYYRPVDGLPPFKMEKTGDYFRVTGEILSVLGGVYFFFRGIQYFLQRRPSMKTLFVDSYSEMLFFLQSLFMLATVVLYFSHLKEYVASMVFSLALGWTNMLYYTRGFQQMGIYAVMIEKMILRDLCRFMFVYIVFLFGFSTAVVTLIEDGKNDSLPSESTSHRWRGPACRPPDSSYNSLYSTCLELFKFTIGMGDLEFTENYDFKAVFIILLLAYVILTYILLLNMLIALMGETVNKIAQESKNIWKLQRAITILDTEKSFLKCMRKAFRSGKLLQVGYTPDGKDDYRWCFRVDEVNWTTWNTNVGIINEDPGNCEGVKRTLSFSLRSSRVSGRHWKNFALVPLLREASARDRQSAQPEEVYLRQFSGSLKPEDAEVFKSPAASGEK
# Sequence of Lysophosphatidic acid receptor 2 (Q9HBW0 whole entry): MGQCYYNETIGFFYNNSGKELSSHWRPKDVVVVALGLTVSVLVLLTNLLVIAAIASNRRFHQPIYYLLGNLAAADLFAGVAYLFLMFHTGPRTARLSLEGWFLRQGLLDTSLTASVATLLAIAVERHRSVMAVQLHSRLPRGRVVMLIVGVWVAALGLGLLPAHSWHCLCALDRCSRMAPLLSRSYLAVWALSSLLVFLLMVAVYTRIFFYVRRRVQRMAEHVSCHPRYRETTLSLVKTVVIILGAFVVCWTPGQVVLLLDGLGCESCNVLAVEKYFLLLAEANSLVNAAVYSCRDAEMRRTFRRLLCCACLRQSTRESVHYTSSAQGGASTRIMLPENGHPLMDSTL
structure (smiles),measurement,setting,value
CCCCCCCCCCCCCCCC(=O)OC[C@@H](O)CC(Br)P(=O)(O)O (some centres not stated),Ki,[1],0.17 µM
same,Ki,[2],0.17 µM
same,Ki,[3],0.17 µM
same,Ki,[4],0.17 µM
CCCCCCCCCCCCCCCC(=O)OC[C@@H](O)C[C@@H](Br)P(=O)(O)O,IC50,Autotaxin [5],0.165 µM
same,inhibition,Autotaxin [6],98%
same,inhibition (INH),MDA-MB-231,50%
CCN(CC)c1ccc2c(-c3ccc(S(=O)(=O)NCc4ccc(C(Br)P(=O)(O)O)cc4)cc3S(=O)(=O)[O-])c3ccc(=[N+](CC)CC)cc-3oc2c1 (configuration not stated),Ki,[7],690 µM
CCN(CC)c1ccc2c(-c3ccc(S(=O)(=O)[O-])cc3S(=O)(=O)NCc3ccc(C(Br)P(=O)(O)O)cc3)c3ccc(=[N+](CC)CC)cc-3oc2c1 (configuration not stated),Ki,[7],690 µM
CCCCCCCC/C=C\CCCCCCCC(=O)OC[C@@H](O)COP(=O)(O)O [LYSOPHOSPHATIDIC ACID],Kd,[8],0.754 µM
Nc1nc2c(ncn2CCCCC(F)(F)P(=O)(O)O)c(=O)[nH]1,Ki,[9],0.174 µM
O=P(O)(O)C(Br)c1ccccc1 (configuration not stated),Ki,[7],4100 µM
O=C(CCCC[C@H]1SC[C@H]2NC(=O)N[C@H]21)NCc1ccc(C(Br)P(=O)(O)O)cc1 (some centres not stated),Ki,[7],740 µM
CCCCCCCCCCCCCCCC(=O)OC[C@@H](O)CC(Br)P(=O)(O)O (mixture of isomers) [listing 1 of 2 here],Kd,[8],1.1 µM
CCCCCCCC/C=C\CCCCCCCC(=O)OC[C@@H](O)CC(Br)P(=O)(O)O (some centres not stated),Ki,[1],0.17 µM
same,Ki,[2],0.17 µM
same,Ki,[3],0.17 µM
same,Ki,[4],0.17 µM
CCCCCCCCCCCCCCCC(=O)OC[C@@H](O)CC(Br)P(=O)(O)O (mixture of isomers) [listing 2 of 2 here],inhibition,Autotaxin [6],98%
CCCCCCCCCCCCCCCC(=O)OC[C@@H](O)C[C@H](Br)P(=O)(O)O,IC50,Autotaxin [5],0.022 µM
same,inhibition,Autotaxin [6],98%
same,inhibition (INH),MDA-MB-231,50%
